Measurements taken from US4001424A, “1-Oxo-1H-naphtho [2,1-b] pyran derivatives for treating depression” (Carlo Erba S.p.A., priority 1973, dated 1977).

Key:
[1] = system: reserpine-induced hypothermia; experiment: Anti-reserpine activity: prevention of reserpine-induced hypothermia; assay type: in vivo, mice; conditions: Mus musculus, 4 h; oral, 30 min before reserpine 2.5 mg/kg endoperitoneally; rectal temperature four hours after reserpine; dose reducing symptoms by 50% vs control
Text: (§1) 1-oxo-1H-naphtho[2,1-b]pyran derivatives as well as the pharmaceutical compositions containing them, being the object of the present invention, are active on the central nervous system as antidepressive agents. The antidepressive activity of the compounds of the invention, evaluated in mice from the prevention of reserpine-induced blepharospasm and hypothermia, is shown in the following Table, where the antireserpine effect is indicated as ED50 values, that is, doses able to prevent reserpine-induced blepharospasm and hypothermia by reducing symptoms of 50% if compared with the values obtainable in control animals.
(§2) Reserpine was administered endoperitoneally at a dosage of 2.5 mg/kg, and the compounds tested were administered orally 30 minutes before administration of reserpine. Recording of blepharospasm (evaluated in scores according to the technique described by Rubin B. et al in J. Pharmacol. 120, 125, 1957) and measurement of body temperature (by means of a rectal thermocouple […]) were taken an hour, and respectively, four hours after the administration of reserpine. In particular, the compounds object of the present invention not only allow to obtain a lower general toxicity in comparison with standard antidepressive agents, but also a lower cardiac toxicity as well as the lack of peripheral atropine effects.

[2] = system: reserpine-induced blepharospasm; experiment: Anti-reserpine activity: prevention of reserpine-induced blepharospasm; assay type: in vivo, mice; conditions: Mus musculus, 1 h; oral, 30 min before reserpine 2.5 mg/kg endoperitoneally; scored one hour after reserpine; dose reducing symptoms by 50% vs control
Text: as §1, §2

Compound: CCN(C)c1cc(=O)c2c(ccc3ccccc32)o1 [1-oxo-3-(N-methyl-N-ethyl)amino-1H-naphtho[2,1-b]pyran]
- ED50 [1]: 15 mg/kg
- ED50 [2]: 4 mg/kg

Compound: CN(C)c1cc(=O)c2c(ccc3ccccc32)o1 [1-oxo-3-dimethylamino-1H-naphtho[2,1-b]pyran]
- ED50 [1]: 21 mg/kg
- ED50 [2]: 8.7 mg/kg
